Measurements from patent US8835476B2, “Synthesis of novel antimicrobials” (priority 2005, dated 2014).
Read-outs that look alike come from different tables or passages of the source.

What was measured:
Assay type in all cases: cell-based
[1] = test system: S. liquifaciens clinical isolates; experiment: Broth microdilution MIC, clinical isolate strains (NAUTICA); details: Table 4B; each table row is one clinical isolate; unit assumed
Summary of the method: (§1)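 Tested per NCCLS M7-A6 broth microdilution with an inoculum of 5×10^5 CFU/ml and DMSO controls matching solvent levels. Panels were incubated 16 to 20 hours at 35° C. in ambient air, and the MIC was taken as the lowest concentration inhibiting visible growth.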

[2] = test system: S. marcescens clinical isolates; experiment: as above; details: Table 4B; each table row is one clinical isolate; unit assumed
Summary of the method: as §1

[3] = test system: C. amalonaticus clinical isolates; experiment: as above; details: Table 4B; each table row is one clinical isolate; unit assumed
Summary of the method: as §1

[4] = test system: K. oxytoca clinical isolates; experiment: as above; details: Table 4B; each table row is one clinical isolate; unit assumed
Summary of the method: as §1

[5] = test system: K. pneumoniae clinical isolates; experiment: as above; details: Table 4B; each table row is one clinical isolate; unit assumed
Summary of the method: as §1

[6] = test system: P. retgerri clinical isolates; experiment: as above; details: Table 4B; each table row is one clinical isolate; unit assumed
Summary of the method: as §1

[7] = test system: P. vulgaris clinical isolates; experiment: as above; details: Table 4B; each table row is one clinical isolate; unit assumed
Summary of the method: as §1

[8] = test system: B. cepacia clinical isolates; experiment: as above; details: Table 4B; each table row is one clinical isolate; unit assumed
Summary of the method: as §1

[9] = test system: S. maltophilia clinical isolates; experiment: as above; details: Table 4B; each table row is one clinical isolate; unit assumed
Summary of the method: as §1

[10] = test system: P. mirabilis clinical isolates; experiment: as above; details: Table 4B; each table row is one clinical isolate; unit assumed
Summary of the method: as §1

[11] = test system: M. morganii clinical isolates; experiment: as above; details: Table 4B; each table row is one clinical isolate; unit assumed
Summary of the method: as §1

[12] = test system: C. koseril clinical isolates; experiment: as above; details: Table 4B; each table row is one clinical isolate; unit assumed
Summary of the method: as §1

[13] = test system: P. stuartii clinical isolates; experiment: as above; details: Table 4B; each table row is one clinical isolate; unit assumed
Summary of the method: as §1

[14] = test system: E. aerogenes clinical isolates; experiment: as above; details: Table 4B; each table row is one clinical isolate; unit assumed
Summary of the method: as §1

[15] = test system: E. coli clinical isolates; experiment: as above; details: Table 4B; each table row is one clinical isolate; unit assumed
Summary of the method: as §1

[16] = test system: A. baumanii clinical isolates; experiment: as above; details: Table 4B; each table row is one clinical isolate; unit assumed
Summary of the method: as §1

[17] = test system: E. cloacae clinical isolates; experiment: as above; details: Table 4B; each table row is one clinical isolate; unit assumed
Summary of the method: as §1

[18] = test system: C. freundii clinical isolates; experiment: as above; details: Table 4B; each table row is one clinical isolate; in µg/mL (unit assumed)
Summary of the method: as §1

MRSA ATCC 33591 = experiment: Broth microdilution MIC, ATCC strains; details: Staphylococcus aureus; MRSA ATCC 33591; read-out: MIC (growth inhibition, microdilution method)
Summary of the method: as §1

A. anitratus ATCC 19606 = experiment: Broth microdilution MIC, ATCC strains; details: Acinetobacter calcoaceticus, ATCC19606; A. anitratus ATCC 19606; read-out: MIC (growth inhibition, microdilution method)
Summary of the method: as §1

B. cepacia ATCC 25416 = experiment: Broth microdilution MIC, ATCC strains; details: Burkholderia cepacia, ATCC25416; B. cepacia ATCC 25416; read-out: MIC (growth inhibition, microdilution method)
Summary of the method: as §1

[19] = test system: S. maltophilia ATCC 13637; experiment: Broth microdilution MIC, ATCC strains; details: Stenotrophomonas maltophilia, ATCC13637; S. maltophilia ATCC 13637; read-out: MIC (growth inhibition, microdilution method)
Summary of the method: as §1

P. vulgaris ATCC 49132 = experiment: Broth microdilution MIC, ATCC strains; details: Proteus vulgaris, ATCC49132; P. vulgaris ATCC 49132; read-out: MIC (growth inhibition, microdilution method)
Summary of the method: as §1

S. aureus ATCC 29213 = experiment: Broth microdilution MIC, ATCC strains; details: Staphylococcus aureus, ATCC29213, S. aureus ATCC 29213; read-out: MIC (growth inhibition, microdilution method)
Summary of the method: as §1

S. marcescens ATCC 8100 = experiment: Broth microdilution MIC, ATCC strains; details: Serratia marcescens, ATCC8100; S. marcescens ATCC 8100; read-out: MIC (growth inhibition, microdilution method)
Summary of the method: as §1

K. oxytoca ATCC 49131 = experiment: Broth microdilution MIC, ATCC strains; details: Klebsiella oxytoca, ATCC49131; K. oxytoca ATCC 49131; read-out: MIC (growth inhibition, microdilution method)
Summary of the method: as §1

K. pneumoniae ATCC 13883 = experiment: Broth microdilution MIC, ATCC strains; details: Klebsiella pneumoniae, ATCC13883; K. pneumoniae ATCC 13883; read-out: MIC (growth inhibition, microdilution method)
Summary of the method: as §1

[20] = test system: Ps. aeruginosa ATCC 27853; experiment: Broth microdilution MIC, ATCC strains; details: Pseudomonas aeruginosa, ATCC27853; Ps. aeruginosa ATCC 27853; read-out: MIC (growth inhibition, microdilution method)
Summary of the method: as §1

E. coli ATCC 25922 = experiment: Broth microdilution MIC, ATCC strains; details: Escherichia coli, ATCC25922, E. coli ATCC 25922; read-out: MIC (growth inhibition, microdilution method)
Summary of the method: as §1

E. faecalis ATCC 29212 = experiment: Broth microdilution MIC, ATCC strains; details: Enterococcus faecalis, read-out: MIC (growth inhibition, microdilution method)
Summary of the method: as §1

E. aerogenes ATCC 13048 = experiment: Broth microdilution MIC, ATCC strains; details: Klebsiella aerogenes, ATCC13048; E. aerogenes ATCC 13048; read-out: MIC (growth inhibition, microdilution method)
Summary of the method: as §1

[21] = ATCC29212, E. faecalis ATCC 29212
[22] = ATCC29212, E. faecalis, ATCC number not given

Structure (SMILES)	MIC, S. LIQUEFACIENS [1] [µg/mL]	MIC, S. MARCESCENS [2] [µg/mL]	MIC, C. AMALONATICUS [3] [µg/mL]	MIC, K. OXYTOCA [4] [µg/mL]	MIC, K. PNEUMONIAE [5] [µg/mL]	MIC, P. RETTGERI [6] [µg/mL]	MIC, P. VULGARIS [7] [µg/mL]	MIC, B. CEPACIA [8] [µg/mL]	MIC, S. MALTOPHILIA [9] [µg/mL]	MIC, P. MIRABILIS [10] [µg/mL]	MIC, M. MORGANII [11] [µg/mL]	MIC, C. KOSERI [12] [µg/mL]	MIC, P. STUARTII [13] [µg/mL]	MIC, E. AEROGENES [14] [µg/mL]	MIC, E. COLI [15] [µg/mL]	MIC, A. BAUMANII [16] [µg/mL]	MIC, E. CLOACAE [17] [µg/mL]	MIC, C. FREUNDII [18]	MIC (MRSA ATCC 33591) [µg/mL]	MIC (A. anitratus ATCC 19606) [µg/mL]	also measured
O=C(O)c1sc(-c2ccc(F)cc2)cc1-c1nnn[nH]1 [DNM-141, 5-(4-Fluoro-phenyl)-3-(1H-tetrazol-5-yl)-thiophene-2-carboxylic acid]	> 16	> 16	> 16	> 16	> 16	> 16	> 16	> 16	> 16	> 16	> 16	> 16	> 16	> 16	> 16	> 16	> 16	>16	> 16	> 16	MIC (B. cepacia ATCC 25416): > 16 µg/mL; MIC [19]: > 16 µg/mL; MIC (P. vulgaris ATCC 49132): > 16 µg/mL; MIC (S. aureus ATCC 29213): > 16 µg/mL; MIC (S. marcescens ATCC 8100): > 16 µg/mL; MIC (K. oxytoca ATCC 49131): > 16 µg/mL; MIC (K. pneumoniae ATCC 13883): > 16 µg/mL; MIC [20]: > 16 µg/mL; MIC (E. coli ATCC 25922): > 16 µg/mL; MIC (E. faecalis ATCC 29212; [21]): > 16 µg/mL; MIC (E. faecalis ATCC 29212; [22]): > 16 µg/mL; MIC (E. aerogenes ATCC 13048): > 16 µg/mL
Cn1nnc(-c2cc(-c3ccc(F)cc3)sc2C(=O)O)n1 [DNM-142, 5-(4-Fluoro-phenyl)-3-(2-methyl-2H-tetrazol-5-yl)-thiophene-2-carboxylic acid]	> 16	> 16	> 16	> 16	> 16	> 16	> 16	> 16	> 16	> 16	> 16	> 16	> 16	> 16	> 16	> 16	> 16	>16	> 16	> 16	MIC (B. cepacia ATCC 25416): > 16 µg/mL; MIC [19]: > 16 µg/mL; MIC (P. vulgaris ATCC 49132): > 16 µg/mL; MIC (S. aureus ATCC 29213): > 16 µg/mL; MIC (S. marcescens ATCC 8100): > 16 µg/mL; MIC (K. oxytoca ATCC 49131): > 16 µg/mL; MIC (K. pneumoniae ATCC 13883): > 16 µg/mL; MIC [20]: > 16 µg/mL; MIC (E. coli ATCC 25922): > 16 µg/mL; MIC (E. faecalis ATCC 29212; [21]): > 16 µg/mL; MIC (E. faecalis ATCC 29212; [22]): > 16 µg/mL; MIC (E. aerogenes ATCC 13048): > 16 µg/mL
Cn1nnnc1-c1cc(-c2ccc(F)cc2)sc1C(=O)O [DNM-143, 5-(4-Fluoro-phenyl)-3-(1-methyl-1H-tetrazol-5-yl)-thiophene-2-carboxylic acid]	> 8	> 8	> 8	> 8	> 8	> 8	> 8	> 8	> 8	> 8	> 8	> 8	> 8	> 8	> 8	> 8	> 8	>8	> 8	> 8	MIC (B. cepacia ATCC 25416): > 8 µg/mL; MIC [19]: > 8 µg/mL; MIC (P. vulgaris ATCC 49132): > 8 µg/mL; MIC (S. aureus ATCC 29213): > 8 µg/mL; MIC (S. marcescens ATCC 8100): > 8 µg/mL; MIC (K. oxytoca ATCC 49131): > 8 µg/mL; MIC (K. pneumoniae ATCC 13883): > 8 µg/mL; MIC [20]: > 8 µg/mL; MIC (E. coli ATCC 25922): > 8 µg/mL; MIC (E. faecalis ATCC 29212; [21]): > 8 µg/mL; MIC (E. faecalis ATCC 29212; [22]): > 8 µg/mL; MIC (E. aerogenes ATCC 13048): > 8 µg/mL
COC(=O)c1sc(-c2ccc(F)cc2)cc1-c1nnn(C)n1 [DNM-144, 5-(4-fluoro-phenyl)-3-(2-methyl-2H-tetrazol-5-yl)-thiophene-2-carboxylic acid methyl ester]	> 8	> 8	> 8	> 8	> 8	> 8	> 8	> 8	> 8	> 8	> 8	> 8	> 8	> 8	> 8	> 8	> 8	>8	> 8	> 8	MIC (B. cepacia ATCC 25416): > 8 µg/mL; MIC [19]: > 8 µg/mL; MIC (P. vulgaris ATCC 49132): > 8 µg/mL; MIC (S. aureus ATCC 29213): > 8 µg/mL; MIC (S. marcescens ATCC 8100): > 8 µg/mL; MIC (K. oxytoca ATCC 49131): > 8 µg/mL; MIC (K. pneumoniae ATCC 13883): > 8 µg/mL; MIC [20]: > 8 µg/mL; MIC (E. coli ATCC 25922): > 8 µg/mL; MIC (E. faecalis ATCC 29212; [21]): > 8 µg/mL; MIC (E. faecalis ATCC 29212; [22]): > 8 µg/mL; MIC (E. aerogenes ATCC 13048): > 8 µg/mL
